Structures are written as SMILES.

Here are results for six compounds from patent US20080076762A1, “Novel 4-Aminopiperidine Derivatives” (priority 2004, published 2008).

Assay [1] addresses plasmepsin IV (Plasmodium falciparum, UniProt Q8IM16). Nature of the assay: FRET assay for plasmepsin IV. To be noted: pH 5, 37° C., substrate M-2120 1 μM. The format is biochemical. As to the method:
(§1) The Fluorescence Resonance Energy Transfer (FRET) Assay for Plasmepsin II & IV and Human Cathepsin D & E:
(§2) The assay conditions are selected according to reports in the literature.
(§3) The FRET assay is performed in white polysorp plates (Fluoronunc, cat no 264 572) at 37° C. with a final volume of 80 μl.
(§4) The assay buffer is composed of 50 mM sodium acetate pH 5, 12.5% (w/v) glycerol, and 0.1% (w/v) BSA. The reaction consists of the following components: 60 μl assay buffer, 4 μl inhibitor (in DMSO), 8 μl substrate (M-2120 from BACHEM) to a final concentration of 1 μM and 8 μl enzyme (plasmepsin II, plasmepsin IV or cathepsin E to a final amount of 0.015 μg/ml per assay tube, cathepsin D to a final amount of 0.05 μg/ml per assay tube). The inhibitor is pre-diluted in DMSO in a dilution plate and six concentrations are prepared in duplicate. The compounds are usually tested at a final concentration varying from 1 nM to 100 μM. The substrate is diluted using 50% DMSO-50% assay buffer and the enzyme using assay buffer. The mixtures are then incubated for 3 h at 37° C. and the fluorescence is determined at 1 and 3 hour with a FluoroStar Galaxy from BMG using excitation and emission filters of 355 and 520 nm, respectively.
(§5) Auto-fluorescence of all the test substances is determined in assay buffer in the absence of substrate and enzyme and this value is subtracted from the final signal.
(§6) The inhibitory activity of the compounds is expressed as IC50, which represents the concentration of compound that inhibits 50% of the maximal (uninhibited) enzyme activity.

Assay [2] deals with plasmepsin II (Plasmodium falciparum, UniProt Q8I6V3). Description: FRET assay for plasmepsin II. The class given is biochemical. To be noted: pH 5, 37° C., substrate M-2120 1 μM. As to the method: as §1, §2, §3, §4, §5, §6
plasmepsin II, sequence (Q8I6V3 125-453): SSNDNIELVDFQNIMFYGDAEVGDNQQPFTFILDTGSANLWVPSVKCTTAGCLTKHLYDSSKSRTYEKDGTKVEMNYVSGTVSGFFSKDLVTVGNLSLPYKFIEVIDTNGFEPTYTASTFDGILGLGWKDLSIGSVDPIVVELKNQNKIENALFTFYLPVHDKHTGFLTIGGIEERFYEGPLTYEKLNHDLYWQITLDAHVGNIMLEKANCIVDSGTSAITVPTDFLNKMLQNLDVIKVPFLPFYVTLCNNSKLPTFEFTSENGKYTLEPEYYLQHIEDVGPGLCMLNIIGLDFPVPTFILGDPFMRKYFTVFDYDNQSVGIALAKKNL

plasmepsin IV, sequence (Q8IM16 122-449): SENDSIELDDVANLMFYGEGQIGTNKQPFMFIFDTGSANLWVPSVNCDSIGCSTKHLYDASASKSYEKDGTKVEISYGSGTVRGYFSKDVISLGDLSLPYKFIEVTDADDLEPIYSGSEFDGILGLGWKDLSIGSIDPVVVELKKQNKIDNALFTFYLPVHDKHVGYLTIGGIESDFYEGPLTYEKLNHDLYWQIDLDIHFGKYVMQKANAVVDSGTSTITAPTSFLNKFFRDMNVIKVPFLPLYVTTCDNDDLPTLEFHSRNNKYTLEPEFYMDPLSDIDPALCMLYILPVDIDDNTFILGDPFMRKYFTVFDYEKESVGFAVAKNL

`CCCCCc1ccc(C(=O)N(Cc2ccc(C(=O)NCc3c(F)cccc3F)cc2)C2CCN(CCC(C)C)CC2)nc1` [Example 223, 5-Pentyl-pyridine-2-carboxylic acid [4-(2,6-difluoro-benzylcarbamoyl)-benzyl]-[1-(3-methyl-butyl)-piperidin-4-yl]-amide]: the IC50 (commonly the point on the concentration scale where inhibition reaches its midpoint) in assay [1] came to 1110 nM; in assay [2], 40 nM. The corresponding values for `CCCCCc1ccc(C(=O)N(Cc2ccc(-c3ccc(C(=O)N4CCCCC4)cc3)cc2)C2CCN(CCC(C)C)CC2)nc1` [Example 163] are 635 nM and 10 nM.

In the case of `CCCCCc1ccc(C(=O)N(Cc2ccc(-c3ccc(Cl)c(Cl)c3)o2)C2CCN(CCC(C)C)CC2)cc1` [Example 220, N-[5-(3,4-dichloro-phenyl)-furan-2-ylmethyl]-N-[1-(3-methyl-butyl)-piperidin-4-yl]-4-pentyl-benzamide], the half-maximal inhibitory concentration (IC50) in assay [1] came out at 56 nM; in assay [2] it was 41 nM. As to `CCCCCc1ccc(C(=O)N(Cc2ccc(N3CCSCC3)nc2)C2CCN(CCC(C)C)CC2)nc1` [Example 226], the IC50 in assay [1] was 359 nM; in assay [2] it was 51 nM. Taken in the same sequence, the figures for `CCCCCc1ccc(C(=O)N(Cc2ccc(-c3cccc(C)c3)cc2)C2CCN(CCC(C)C)CC2)nc1` [Example 166, 5-Pentyl-pyridine-2-carboxylic acid (3′-methyl-biphenyl-4-ylmethyl)-[1-(3-methyl-butyl)-piperidin-4-yl]-amide] were 22 nM and 16 nM.

In turn, `CCCCCc1ccc(C(=O)N(Cc2ccc(-c3ccc(C(=O)N4CCCCC4)cc3)cc2)C2CCN(CCC(C)C)CC2)s1` [Example 88] yielded a 50% inhibitory concentration (IC50) in assay [2] of 77 nM.
